Experimental data from ChEMBL document CHEMBL1909046, “DrugMatrix in vitro pharmacology data”.
pIC50, pKi: −log10 of the molar value.

Key:
[1] = biological target: T1, Angiotensin-converting enzyme (Oryctolagus cuniculus, UniProt P12822); assay type: tissue-based, Lung;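 note: enzymatic inhibition of angiotensin-converting enzyme measured with FAPGG as the substrate; in other assays of this panel Not Active means under 50% inhibition at 10 µM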
T1 sequence (P12822 whole entry): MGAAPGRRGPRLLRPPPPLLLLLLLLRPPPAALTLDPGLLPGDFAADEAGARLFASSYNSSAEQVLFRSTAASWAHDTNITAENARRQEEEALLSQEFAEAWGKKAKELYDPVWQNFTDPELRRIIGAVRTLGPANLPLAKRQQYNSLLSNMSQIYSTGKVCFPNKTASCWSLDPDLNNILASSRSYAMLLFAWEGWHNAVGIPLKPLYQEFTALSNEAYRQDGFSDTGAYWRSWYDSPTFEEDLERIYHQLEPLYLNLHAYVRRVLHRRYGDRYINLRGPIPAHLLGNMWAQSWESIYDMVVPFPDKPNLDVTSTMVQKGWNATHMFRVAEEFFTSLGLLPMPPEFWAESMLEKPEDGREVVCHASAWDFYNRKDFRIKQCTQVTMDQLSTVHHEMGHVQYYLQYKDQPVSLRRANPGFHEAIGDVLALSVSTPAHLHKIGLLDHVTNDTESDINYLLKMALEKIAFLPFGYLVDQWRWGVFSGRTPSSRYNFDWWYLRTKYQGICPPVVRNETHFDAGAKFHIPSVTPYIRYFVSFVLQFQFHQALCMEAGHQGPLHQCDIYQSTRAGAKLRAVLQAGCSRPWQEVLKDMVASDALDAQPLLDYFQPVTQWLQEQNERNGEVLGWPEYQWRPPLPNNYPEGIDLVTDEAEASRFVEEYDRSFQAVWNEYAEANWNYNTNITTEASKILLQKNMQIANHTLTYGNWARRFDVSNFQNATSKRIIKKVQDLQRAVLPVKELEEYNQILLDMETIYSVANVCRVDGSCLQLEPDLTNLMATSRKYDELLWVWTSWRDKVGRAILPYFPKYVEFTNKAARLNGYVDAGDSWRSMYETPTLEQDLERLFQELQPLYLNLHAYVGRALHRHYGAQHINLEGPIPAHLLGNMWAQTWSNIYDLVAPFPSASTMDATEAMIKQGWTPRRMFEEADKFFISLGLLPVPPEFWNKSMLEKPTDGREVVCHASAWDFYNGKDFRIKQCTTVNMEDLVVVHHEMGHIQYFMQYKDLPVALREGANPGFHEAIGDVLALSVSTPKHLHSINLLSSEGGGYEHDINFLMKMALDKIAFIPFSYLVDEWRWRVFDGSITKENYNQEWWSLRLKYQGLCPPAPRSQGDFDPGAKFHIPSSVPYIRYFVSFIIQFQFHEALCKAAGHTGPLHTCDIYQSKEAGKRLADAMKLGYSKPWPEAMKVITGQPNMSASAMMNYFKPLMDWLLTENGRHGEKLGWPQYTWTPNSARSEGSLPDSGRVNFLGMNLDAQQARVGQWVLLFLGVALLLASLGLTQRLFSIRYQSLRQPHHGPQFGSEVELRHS

[2] = DRUGMATRIX: Calcium Channel Type L, Phenylalkylamine radioligand binding (ligand: [3H] (-)-Desmethoxyverapamil (D-888)); assay type: cell membranes, Rattus norvegicus, Wistar, Brain, Membrane; settings: Not Active = under 50% inhibition at 10 µM; for pIC50: read-out: IC50; for pKi: read-out: Ki
Melanocortin receptor 3 = Melanocortin receptor 3 (Homo sapiens, UniProt P41968); assay type: cell membranes, Membrane; settings: hek293; note: in other assays of this panel Not Active means under 50% inhibition at 10 µM
[3] = DRUGMATRIX: Calcium Channel Type L, Benzothiazepine radioligand binding (ligand: [3H] Diltiazem); assay type: cell membranes, Rattus norvegicus, Wistar, Brain, Membrane; settings: Not Active = under 50% inhibition at 10 µM; for pIC50: read-out: IC50; for pKi: read-out: Ki
Cytochrome P450 2E1 = Cytochrome P450 2E1 (Homo sapiens, UniProt P05181); settings: bti-tn-5b1-4; note: in other assays of this panel Not Active means under 50% inhibition at 10 µM
[4] = DRUGMATRIX: beta-Lactamase enzyme inhibition (substrate: Nitrocefin); design: species or system Bacillus cereus; settings: Not Active = under 50% inhibition at 10 µM
Cytochrome P450 1A2 = biological target: T2, Cytochrome P450 1A2 (Homo sapiens, UniProt P05177); settings: bti-tn-5b1-4; note: in other assays of this panel Not Active means under 50% inhibition at 10 µM
T2 sequence (P05177 whole entry): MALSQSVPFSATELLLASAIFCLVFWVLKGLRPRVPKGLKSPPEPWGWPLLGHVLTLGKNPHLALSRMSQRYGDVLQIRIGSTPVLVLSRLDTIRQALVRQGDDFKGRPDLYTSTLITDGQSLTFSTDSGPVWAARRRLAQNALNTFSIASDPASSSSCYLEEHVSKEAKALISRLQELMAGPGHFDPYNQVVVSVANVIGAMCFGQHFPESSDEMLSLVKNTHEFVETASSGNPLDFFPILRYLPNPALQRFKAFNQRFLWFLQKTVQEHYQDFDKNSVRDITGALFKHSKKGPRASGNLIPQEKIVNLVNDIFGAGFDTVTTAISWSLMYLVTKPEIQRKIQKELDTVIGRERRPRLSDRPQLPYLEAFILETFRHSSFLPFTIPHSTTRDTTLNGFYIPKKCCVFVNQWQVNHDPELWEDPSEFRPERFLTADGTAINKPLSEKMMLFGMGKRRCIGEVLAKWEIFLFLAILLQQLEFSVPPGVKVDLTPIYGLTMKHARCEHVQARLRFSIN

[5] = biological target: Aldo-keto reductase family 1 member B1 (Rattus norvegicus, UniProt P07943); test: biochemical; assay type: tissue-based, Lens of camera-type eye

Sequence of Cytochrome P450 2E1 (P05181 whole entry): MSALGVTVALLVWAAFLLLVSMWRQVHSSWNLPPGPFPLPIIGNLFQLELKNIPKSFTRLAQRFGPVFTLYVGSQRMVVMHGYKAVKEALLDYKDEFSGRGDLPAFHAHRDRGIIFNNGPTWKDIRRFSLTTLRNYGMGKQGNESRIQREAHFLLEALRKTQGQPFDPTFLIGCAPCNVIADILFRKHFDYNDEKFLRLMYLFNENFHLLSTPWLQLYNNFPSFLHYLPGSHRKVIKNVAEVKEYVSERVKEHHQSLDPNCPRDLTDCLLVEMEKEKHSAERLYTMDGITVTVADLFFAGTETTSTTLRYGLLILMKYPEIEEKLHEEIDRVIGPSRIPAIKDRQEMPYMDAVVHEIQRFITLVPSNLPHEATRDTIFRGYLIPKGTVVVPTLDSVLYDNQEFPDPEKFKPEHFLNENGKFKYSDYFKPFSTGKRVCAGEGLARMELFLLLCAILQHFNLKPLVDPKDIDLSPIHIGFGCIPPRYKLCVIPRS
Sequence of Melanocortin receptor 3 (P41968 whole entry): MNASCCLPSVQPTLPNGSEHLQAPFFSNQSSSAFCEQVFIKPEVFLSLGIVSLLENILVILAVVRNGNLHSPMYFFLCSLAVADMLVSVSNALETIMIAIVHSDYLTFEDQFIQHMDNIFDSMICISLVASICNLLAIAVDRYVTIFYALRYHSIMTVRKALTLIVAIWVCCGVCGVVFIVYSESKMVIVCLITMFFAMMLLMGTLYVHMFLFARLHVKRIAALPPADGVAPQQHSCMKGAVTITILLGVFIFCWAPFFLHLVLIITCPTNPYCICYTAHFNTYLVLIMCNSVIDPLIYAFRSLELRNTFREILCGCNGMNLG

| SMILES | IC50 [1] | IC50 [2] | Ki [2] | IC50 (Melanocortin receptor 3) | IC50 [3] | Ki [3] | IC50 (Cytochrome P450 2E1) | Ki (Cytochrome P450 2E1) | IC50 [4] | Ki [4] | IC50 (Cytochrome P450 1A2) | Ki (Cytochrome P450 1A2) | pIC50 ([5]; read-out: IC50) | IC50 [5] | pIC50 [3] | pKi [3] | pIC50 [2] | pKi [2] |
| --- | --- | --- | --- | --- | --- | --- | --- | --- | --- | --- | --- | --- | --- | --- | --- | --- | --- | --- |
| CC1=C(CC(=O)O)c2cc(F)ccc2/C1=C\c1ccc([S+](C)[O-])cc1 (centres undefined) | Not Active | Not Active | Not Active | Not Active | Not Active | Not Active | Not Active | Not Active | Not Active | Not Active | Not Active | Not Active | 6.36 |  |  |  |  |  |
| N[C@H](CSC(=S)NCc1ccccc1)C(=O)O | Not Active | Not Active | Not Active | Not Active | Not Active | Not Active | Not Active | Not Active | Not Active | Not Active | Not Active | Not Active |  | Not Active |  |  |  |  |
| CC(=O)N[C@@H]1[C@H](Oc2c3cc4cc2Oc2ccc(cc2Cl)[C@@H](O[C@@H]2O[C@@H](CO)[C@@H](O)[C@H](O)[C@@H]2NC(C)=O)[C@@H]2NC(=O)[C@H](NC(=O)[C@@H]4NC(=O)[C@H]4NC(=O)[C@@H](Cc5ccc(c(Cl)c5)O3)NC(=O)[C@H](N)c3ccc(O)c(c3)Oc3cc(O)cc4c3)c3ccc(O)c(c3)-c3c(O[C@H]4O[C@H](CO)[C@@H](O)[C@@H](O)[C@@H]4O)cc(O)cc3[C@@H](C(=O)O)NC2=O)O[C@@H](CO)[C@@H](O)[C@@H]1O | Not Active | Not Active | Not Active | Not Active | Not Active | Not Active | Not Active | Not Active | Not Active | Not Active | Not Active | Not Active |  | Not Active |  |  |  |  |
| Clc1ccc2c(c1)C(N1CCNCC1)=Nc1ccccc1O2 [AMOXAPINE] | Not Active |  |  | Not Active |  |  | Not Active | Not Active |  |  | Not Active | Not Active |  | Not Active |  |  |  |  |
| COc1cc2c(c(OC)c1OC)-c1ccc(OC)c(=O)cc1[C@@H](NC(C)=O)CC2 [COLCHICINE] | Not Active |  |  | Not Active |  |  | Not Active | Not Active |  |  |  |  |  | Not Active |  |  |  |  |
| CN1CCC(=C2c3ccccc3C=Cc3ccccc32)CC1 [CYPROHEPTADINE] | Not Active |  |  | Not Active |  |  | Not Active | Not Active |  |  | Not Active | Not Active |  | Not Active |  |  |  |  |
| CC/C(=C(/CC)c1ccc(O)cc1)c1ccc(O)cc1 [DIETHYLSTILBESTROL] | Not Active |  |  | Not Active |  |  | Not Active | Not Active |  |  | Not Active | Not Active |  | Not Active |  |  |  |  |
| CC(=O)N1CCN(c2ccc(OCC3COC(Cn4ccnc4)(c4ccc(Cl)cc4Cl)O3)cc2)CC1 (centres undefined) [KETOCONAZOLE] | Not Active | Not Active | Not Active | Not Active |  |  | Not Active | Not Active | Not Active | Not Active | Not Active | Not Active |  | Not Active | 4.49 | 4.55 |  |  |
| C=CCN1CC[C@]23c4c5ccc(O)c4O[C@H]2C(=O)CC[C@@]3(O)[C@H]1C5 [NALOXONE] | Not Active |  |  | Not Active |  |  |  |  |  |  |  |  |  | Not Active |  |  |  |  |
| COCCOC(=O)C1=C(C)NC(C)=C(C(=O)OC(C)C)C1c1cccc([N+](=O)[O-])c1 (centres undefined) [NIMODIPINE] | Not Active | Not Active | Not Active | Not Active |  |  |  |  | Not Active | Not Active |  |  |  | Not Active | 8.68 | 8.73 |  |  |
| CC(C)NCC(O)COc1cccc2ccccc12 (centres undefined) [PROPRANOLOL] | Not Active |  |  | Not Active |  |  | Not Active | Not Active |  |  |  |  |  | Not Active |  |  |  |  |
| COCCCOc1ccnc(C[S+]([O-])c2nc3ccccc3[nH]2)c1C (centres undefined) [RABEPRAZOLE] | Not Active | Not Active | Not Active | Not Active | Not Active | Not Active | Not Active | Not Active | Not Active | Not Active | Not Active | Not Active |  | Not Active |  |  |  |  |
| O=C(c1ccc(OCCN2CCCCC2)cc1)c1c(-c2ccc(O)cc2)sc2cc(O)ccc12 [RALOXIFENE] | Not Active |  |  | Not Active |  |  | Not Active | Not Active | Not Active | Not Active | Not Active | Not Active |  | Not Active |  | 6.43 | 6.83 | 6.84 |
| CNC(=C[N+](=O)[O-])NCCSCc1ccc(CN(C)C)o1 [RANITIDINE] | Not Active | Not Active | Not Active | Not Active | Not Active | Not Active | Not Active | Not Active | Not Active | Not Active | Not Active | Not Active |  | Not Active |  |  |  |  |
| CO[C@H]1/C=C/O[C@@]2(C)Oc3c(C)c(O)c4c(c3C2=O)C2=NC3(CCN(CC(C)C)CC3)NC2=C(NC(=O)/C(C)=C\C=C\[C@H](C)[C@H](O)[C@@H](C)[C@@H](O)[C@@H](C)[C@H](OC(C)=O)[C@@H]1C)C4=O [RIFABUTIN] | Not Active | Not Active | Not Active | Not Active | Not Active | Not Active | Not Active | Not Active | Not Active | Not Active | Not Active | Not Active |  | Not Active |  |  |  |  |
| CC(C)c1nc(CN(C)C(=O)N[C@H](C(=O)N[C@@H](Cc2ccccc2)C[C@H](O)[C@H](Cc2ccccc2)NC(=O)OCc2cncs2)C(C)C)cs1 [RITONAVIR] | Not Active |  |  | Not Active | Not Active | Not Active |  |  | Not Active | Not Active |  |  |  | Not Active |  |  |  |  |
| CC(C)CC(N(C)C)C1(c2ccc(Cl)cc2)CCC1 (centres undefined) [SIBUTRAMINE] | Not Active |  |  | Not Active |  |  | Not Active | Not Active | Not Active | Not Active | Not Active | Not Active |  | Not Active | 6.09 | 6.14 | 5.57 | 5.58 |
| [H]/N=C(/N)N[C@H]1[C@H](O)[C@@H](O)[C@H](O[C@@H]2O[C@@H](C)[C@](O)(C=O)[C@H]2O[C@@H]2O[C@@H](CO)[C@H](O)[C@@H](O)[C@@H]2NC)[C@@H](N/C(N)=N\[H])[C@@H]1O [STREPTOMYCIN] | Not Active | Not Active | Not Active | Not Active | Not Active | Not Active | Not Active | Not Active | Not Active | Not Active | Not Active | Not Active |  | Not Active |  |  |  |  |
